The test has as its target benzodiazepine site of the GABAA receptor. The experiment in a line: Radioligand binding assay, 3H-Ro15-1788 (Flumazenil), purified rat cortical membranes. The conditions noted are these: previously determined; used in the Cheng-Prusoff equation; read-out: binding dissociation constant (Kd) of 3H-Ro15-1788.

As a reminder, the Kd is the free concentration of one partner at which half of the binding sites on the other are occupied at equilibrium, for simple one-to-one binding.

Consider `CCOC(=O)c1ncn2c1CN(C)C(=O)c1cc(F)ccc1-2` [^3H-Ro15-1788], for which the Kd came to 1 nM.
